{"source": "patent US20250268429A1", "about": "“Fluid Dispenser With Automatic Fluid Composition Adjustment” (OP-HYGIENE IP GmbH, priority 2024, published 2025)", "test_system": "Bacillus subtilis spores", "test": "in vitro killing of Bacillus subtilis spores by foam compositions (LOG reduction factor, CFU count)", "type": "cell-based", "conditions": "conclusion from Table 3", "description": "The compositions of Foams 1 to 6 are the same as in Table 1. Foam 7 contained 70% isopropanol.\nIn the in vitro experiments summarized above, the following method was used: the bacterial culture was serially diluted (1 LOG); the tested foam was added to 50 μL of the diluted solution and stirred for 15 seconds; the resulting mixture was transferred to an agar plate and incubated for 24 hours before counting the bacterial colonies (CFUs). The LOG reduction factor was calculated as the LOG bacteria before treatment minus the LOG bacteria after treatment.", "data": [{"compound": "CC(C)O", "note": "[Isopropanol, isopropanol]", "values": [{"measurement": "effectiveness at killing Bacillus subtilis spores (in words)", "value": "not effective"}]}]}
